# Read-outs that look alike come from different tables or passages of the source.
# Key:
# [1] = tested on: heat shock regulon luxCDABE gene fusions; assay: heat shock regulon lux fusions: stress response in liquid LB; format: cell-based, E. coli; conditions: each of the six heat shock fusion strains; at least two of 5, 4, 3, 2 (v/v)% ethanol
# Procedure: (§1) To test the stress responses, one or two single colonies of each selected strain were used to inoculate 5.0 ml of LB medium containing 150 μg/ml of ampicillin. These cultures were grown overnight at 37° C. then diluted by adding 50 μl or 100 μl of the overnight culture into 10.0 ml of fresh LB medium (without ampicillin) and grown with agitation at 37° C. until the culture was in exponential phase with readings on a Klett-Summerson colorimeter containing the red filter of between 10 and 40. These actively growing cultures were immediately used to initiate a stress response experiment by adding 50 μl of cultures to 50 μl of LB medium containing various concentrations of chemical in the wells a 96 well luminometer plate. This division of the actively growing culture at the time of chemical addition ensured identical populations were present when the stress was imposed. Light production was measured in a Dynex ML3000 luminometer at 37° C. The dimensionless units of light production, relative light units (RLU), are obtained by comparison with the light reading from an internal light-emitting diode.
# [2] = tested on: SOS regulon luxCDABE gene fusions; assay: SOS regulon lux fusions: stress response in liquid LB; format: cell-based, E. coli
# Procedure: as §1
# The ability of these promoter-luxCDABE fusions to report activation of the SOS stress response was tested using nalidixic acid, a known, potent chemical inducer. The final concentrations of nalidixic acid were 1, 5, 25, and 125 μg/ml for all but strain DPD2293, which was tested at 80, 40, 20, 10, 5, 2.5, and 1.25 μg/ml.
# Specificity of responses was tested by measuring the effect of ethanol on these SOS regulon gene fusions.
# [3] = tested on: clpB-luxCDABE gene fusion; conditions: 38 min
# From the text: Plasmid DNA was isolated from lux-a.pk043.d3, digested with restriction enzyme XmaI, and ligated with T4 DNA ligase. The ligation reaction was used to transform E. coli strain DPD 1675 by electroporation. Transformants were selected by ampicillin resistance. […] The response to ethanol treatment of two of these light producing transformants that putatively contain inverted chromosomal inserts, of lux-a.pk054.c3 (DPD2243) that contains a plasmid with the clpB promoter operably linked to the luxCDABE reporter and of the original lux-a.pk043.d3 were compared. Actively growing cultures at 37° C. in LB medium were treated with 4% ethanol and light production was quantitated at 37° C. using a microplate luminometer (Dynex ML3000). Table 17 summarizes the average bioluminescence of duplicate samples at 38 min after treatment.
# [4] = tested on: OxyR regulon ahpC-luxCDABE gene fusions; conditions: three ahpC-lux strains; 0.016-0.00025%
# Procedure: as §1
# To test if these strains would report on activation of the OxyR-controlled oxidative stress response, each was treated with hydrogen peroxide at 0.016, 0.008, 0.004, 0.002, 0.001, 0.0005, 0.00025%.
# [5] = tested on: ahpC-luxCDABE gene fusions in pcnB- host; conditions: both ahpC-lux fusions in pcnB- host; 0.004-0.00006%, all seven concentrations
# Procedure: as §1
# [6] = tested on: luxCDABE gene fusions to MMC array genes; assay: Lux-A Collection fusions tested for MMC induction; format: cell-based, E. coli
# Procedure: The Lux-A Collection of reporter gene fusions was examined for presence of fusions to the genes in Table 11. […] Each of these was tested for induction by MMC at several doses over a time course of 100 minutes.
# As expected, the expression of the known SOS genes was elevated; however the expression of several was elevated less than 2-fold (Table 12) and as such were within a large group of 792 genes the expression of which was elevated by 20% or more. Most of these are likely due to artifacts in the array data rather than to actual biologically relevant responses. To test if strains carrying luxCDABE gene fusions would yield the expected positive result, the three gene fusions that were available in the Lux-A Collection of reporter gene fusions were tested for mitomycin C responses.
# [7] = tested on: E. coli strain MG1655 gene expression; assay: DNA microarray experiment with mitomycin C; format: cell-based; conditions: MMC 250 ng/ml, 40 min
# Procedure: The E. coli strain MG1655 (rph-1) was used. Cultures grown in LB at 37° C. overnight were diluted 1 to 250 into fresh LB and grown at 37° C. with aeration. Each subculture was split into two 100 ml cultures when the reading on a Klett-Sammerson calorimeter with the red filter reads 20 Klett units. MMC (Sigma, dissolved in ddH2O) at a final concentration of 250 ng/ml, a sub-lethal dose, was added to one of the split cultures. The other culture was a no addition control. Incubation at 37° C. continued for another 40 minutes, then cells were collected for preparing total RNA. The MMC treated culture and its control reached 60 and 55 Klett units, respectively after 40 minute treatment.
# Total RNA purification, first-strand cDNA labeling, preparation of the E. coli whole genome high-density microarray chips, hybridization and data analysis were done as previously described (Wei et al. (2001) J. Bacteriol. 183: 545-556). Both cy3 and cy5 were used in probe labeling, and the hybridization experiments were repeated by swapping the fluorescence cy dyes between each pair of MMC treated sample and its blank control.
# Ratios of expression in the mitomycin C treated samples vs. controls were calculated for all genes in the DNA array. Ratios greater than or equal to 2 were considered induced genes, while those with ratios less than 2 fold were considered uninduced. The known SOS genes (Kim et al., (1997) Proc Natl Acad Sci USA Dec. 9, 1997; 94(25):13792-7; Lomba et al., (1997) FEMS Microbiol Lett 156:119-122; Walker, G. C. (1996). In Escherichia coli and Salmonella: Cellular and Molecular Biology. ASM Press pp.1400-1416) fell into both the induced (Table 11) and uninduced classes (Table 12).
# [8] = tested on: yebF-luxCDABE fusion; assay: inverted yebF-luxCDABE fusion induction by DNA damaging agents; format: cell-based, E. coli; conditions: yebF-luxCDABE fusion; mitomycin C, FIG. 2
# From the text: In this case, a divergent promoter to the purT gene was present in the chromosomal fragment and strains containing the backward yebF fusion produced light. Following isolation of plasmid DNA, XmaI digestion that releases the insert DNA from the vector, religation and transformation, 10% of the transformants produced light. […] The orientation of the inserted segment to yield a fusion of yebF to the luxCDABE operon was confirmed by DNA sequence analysis.
# To test inverting of a chromosomal segment in a plasmid containing divergent promoters, the backward fusion to yebF was chosen. […] In this case, a divergent promoter to the purT gene was present in the chromosomal fragment and strains containing the backward yebF fusion produced light. Following XmaI digestion, religation and transformation, 10% of the transformants produced light. […] This was verified by DNA sequence analysis. Thus, inverting chromosomal segments containing divergent promoters is possible and is facilitated if the two promoters can be distinguished by their biological activity.
# [9] = tested on: SoxR/S regulon luxCDABE gene fusions; assay: SoxR/S regulon lux fusions: stress response in liquid LB; format: cell-based, E. coli; conditions: each of four strains; 1000-16 μg/ml, all seven concentrations
# Procedure: Like the SOS and heat shock regulon fusions, these had basal light production greater than the promoterless parental plasmid indicating the presence of a promoter. Responsiveness of four of these strains to a known inducer of the SoxR/S regulon, methyl viologen, was tested at 1000, 500, 250, 125, 62, 31 and 16 μg/ml. […] Table 8 gives the response ratio for 250 μg/ml at 120 minutes of treatment for the four tested strains. Here again, the biologically appropriate response was observed.
compound,measurement,setting,value
CCO [Ethanol],bioluminescence vs untreated control,[1],increased bioluminescence
same,response ratio,"[2]; DPD2249 dinP-lux, 3% ethanol, 40 min",0.80
same,bioluminescence vs untreated control,"[2]; SOS regulon fusions, 5, 4, or 3% (v/v) ethanol",little to no increased bioluminescence
same,Light production in LB + 4% ethanol,"[3]; Inverted lux-a.pk043.d3, second isolate",29.63 RLU
same,Light production in LB + 4% ethanol,"[3]; inverted lux-a.pk043.d3, first isolate",8.17 RLU
"OO [H2O2, hydrogen peroxide]",bioluminescence induction,[4],minimally induced
same,bioluminescence induction,[5],dramatically induced increased bioluminescence
"CO[C@@]12[C@H](COC(N)=O)C3=C(C(=O)C(C)=C(N)C3=O)N1C[C@@H]1N[C@@H]12 [MMC, mitomycin C]",gene expression response,[6]; four fusions to genes not previously known MMC inducible,no evidence of increased gene expression
same,induction response,"[6]; four fusions to known SOS genes of Table 11, several doses, 100 min time course",induction of increased bioluminescence
same,bioluminescence response,[6]; three fusions to SOS genes of Table 12,induced increased bioluminescence
same,Fold induction/array expt,[7]; b0531,3.3
same,Fold induction/array expt,[7]; b0571 (ylcA),2.2
same,Fold induction/array expt,[7]; b1228,2.5
same,Fold induction/array expt,[7]; b1847 (yebF),3.3
same,Fold induction/array experiment,[7]; b1848 (yebG),5.8
same,Fold induction/array expt,[7]; b2559,2.0
same,Fold induction/array expt,[7]; b2940,2.3
same,Fold induction/array expt,[7]; b3199,2.0
same,Fold induction/array expt,[7]; cspA,2.9
same,Fold induction/array experiment,[7]; dinB (dinP),2.0
same,Fold induction/array experiment,[7]; dinD,2.2
same,Fold induction/array experiment,[7]; dinF,1.8
same,Fold induction/array experiment,[7]; dinG,1.4
same,Fold induction/array experiment,[7]; dinI,6.7
same,Fold induction/array expt,[7]; dniR,2.1
same,Fold induction/array expt,[7]; exbD,2.2
same,Fold induction/array experiment,[7]; himA,1.3
same,Fold induction/array expt,[7]; hslS,6.7
same,Fold induction/array expt,[7]; hslT,4.0
same,Fold induction/array expt,[7]; infA,2.3
same,Fold induction/array expt,[7]; insA_4,2.1
same,Fold induction/array expt,[7]; insB_1,2.1
same,Fold induction/array expt,[7]; insB_2,2.2
same,Fold induction/array experiment,[7]; lexA,3.6
same,Fold induction/array expt,[7]; mioC,2.1
same,Fold induction/array experiment,[7]; polB (dinA),1.2
same,Fold induction/array experiment,[7]; recA,3.0
same,Fold induction/array experiment,[7]; recN,8.3
same,Fold induction/array experiment,[7]; ruvA,2.0
same,Fold induction/array experiment,[7]; ruvB,1.5
same,Fold induction/array expt,[7]; secG,2.2
same,Fold induction/array experiment,[7]; sulA,5.8
same,Fold induction/array expt,[7]; trkH,2.1
same,Fold induction/array experiment,[7]; umuC,2.1
same,Fold induction/array experiment,[7]; umuD,1.2
same,Fold induction/array experiment,[7]; uvrA,2.3
same,Fold induction/array experiment,[7]; uvrB,2.1
same,Fold induction/array experiment,[7]; uvrD,1.4
same,Fold induction/array expt,[7]; xseA,2.0
same,induction of bioluminescence,[8],induction by mitomycin C was demonstrated
"C[n+]1ccc(-c2cc[n+](C)cc2)cc1 [Methyl viologen, methyl viologen]",bioluminescence vs untreated control,[9],induced increased bioluminescence

# Reference: patent US6716582B2 (priority 2000, dated 2004)
